Here are results for four compounds from ChEMBL document CHEMBL3045038, “Structure-based predictive model for some benzimidazole inhibitors of hepatitis C virus NS5B polymerase” (Med Chem Res, 2013).

This experiment concerns the target RNA-directed RNA polymerase (Hepacivirus hominis, UniProt O39930). Briefly: Inhibition of Hepatitis C virus genotype 1 NS5B polymerases lacking C-terminal 47 amino acid residues expressed in Escherichia coli after 60 min.

The structures appear in SMILES notation.

A word on the IC50: it is the concentration that inhibits the measured activity by half. Consider `O=C(O)c1ccc2c(c1)nc(-c1ccc(OCc3cc(N4CCCC4=O)ccc3-c3ccc(Cl)cc3)cc1F)n2C1CCCCC1`, for which the concentration for half-maximal inhibition (IC50) worked out at 12 nM. With `Cc1ncc(COc2ccc(-c3nc4cc(C(=O)O)ccc4n3C3CCCCC3)c(F)c2)c(-c2ccc(Cl)cc2)n1`, the IC50 was 188 nM.

`CC(=O)NC(=O)c1ccc(-c2ccc(Cl)cc2)c(COc2ccc(-c3nc4cc(C(=O)O)ccc4n3C3CCCCC3)c(F)c2)c1`: the IC50 turned out to be 14 nM.

In turn, `NC(=O)c1ccc(-c2ccc(Cl)cc2)c(COc2ccc(-c3nc4cc(C(=O)O)ccc4n3C3CCCCC3)c(F)c2)c1` came in with an IC50 of 13 nM.
